# Test system: murine B16 melanoma cells
# Test: Anti-tumor effect: tumor size / tumor volume in mice bearing subcutaneous B16 melanoma
# Format: in vivo, C57BL/6 mice
# Design: key to Tumor measurement L (length) / Tumor measurement W (width): The sign “—” indicates that tumor does not reach a measurable size
# Details: for Tumor Volume (cm^3) (Mean ± SD): group mean; for PI (TV), percent inhibition of tumor volume: vs vehicle; for Tumor volumes on Day 15: Length × Width × Width/2
# Protocol: The toxic effects of the dosing regimens were also monitored. […] Meanwhile 9H10 was given in two groups via i.p. on Day 3, 6 and 9. […] Tumor volume and body weight were measured every three days, and tumor weights were measured on Day 16 at the end of the study.
# As per aseptic tissue culture procedures, one vial of B16 melanoma cells was removed from the liquid nitrogen stock, and placed into a 37° C. water bath. Gentle swirling was conducted until the content of the vial was thawed. Using tissue culture/sterile procedures, the cells were immediately centrifuged with a TD5A-WS centrifuge at 1000 rpm, 20-25° C., 5 min. After centrifugation, the cells were suspended in 0.1 to 0.5 mL normal saline (NS) and subcutaneously injected into 10 mice (0.1 mL/mouse, about 1×10^6 cells). After 7-10 days, when the tumor diameter was approximately 1 cm, the animals were euthanized with CO2 overdose and the tumors excised. The procedure was repeated with 20 mice to generate a sufficient number of B16 melanoma cells with adequate transplantability.
# On the day of tumor implantation, approximately 1×10^6 cells in 0.1 mL were subcutaneously injected on the right axillary area of each mouse. The day of tumor implantation was defined as Day 0.
# On Day 3, the animals were randomly assigned into nine different weight-matched and tumor-size-matched groups. Dosing was started on Day 3 using the regimen according to Table 2.
# From Day 1 to Day 15, mortality and moribundity were checked twice daily, the body weights were recorded once every 3 days, and tumors were measured using a caliper once every 3 days. At the end of the study (Day 16), the animals were euthanized by CO2 asphyxiation, and the tumors were excised and weighed.
# Based on the tumor size, the tumor volume (TV) was calculated with the formula: [TV=(Length×Width×Width)/2]. And the percent inhibition (PI) of TV (PITV) was calculated according to the equation below:
# PITV(%)=(TV vehicle−TVdrug treated)/TV vehicle×100
# Inter-group comparison was performed in terms of tumor volume, tumor weight and body weight, using a student's t test. P values of less than 0.05 were considered to be statistically significant.
structure (smiles),measurement,setting,value
CNC(=O)c1cc(Oc2ccc(NC(=O)Nc3ccc(Cl)c(C(F)(F)F)c3)cc2)ccn1 [Sorafenib],Tumor measurement L (length),"Day 3, animal F1",—
same,Tumor measurement W (width),"Day 3, animal F1",—
same,Tumor volume,"Day 3, animal F1",0.0000 cm^3
same,Tumor measurement L (length),"Day 3, animal F2",0.20 cm
same,Tumor measurement W (width),"Day 3, animal F2",0.20 cm
same,Tumor volume,"Day 3, animal F2",0.0040 cm^3
same,Tumor measurement L (length),"Day 3, animal F3",0.10 cm
same,Tumor measurement W (width),"Day 3, animal F3",0.10 cm
same,Tumor volume,"Day 3, animal F3",0.0005 cm^3
same,Tumor measurement L (length),"Day 3, animal F4",—
same,Tumor measurement W (width),"Day 3, animal F4",—
same,Tumor volume,"Day 3, animal F4",0.0000 cm^3
same,Tumor measurement L (length),"Day 3, animal F5",—
same,Tumor measurement W (width),"Day 3, animal F5",—
same,Tumor volume,"Day 3, animal F5",0.0000 cm^3
same,Tumor measurement L (length),"Day 3, animal M1",0.20 cm
same,Tumor measurement W (width),"Day 3, animal M1",0.20 cm
same,Tumor volume,"Day 3, animal M1",0.0040 cm^3
same,Tumor measurement L (length),"Day 3, animal M2",—
same,Tumor measurement W (width),"Day 3, animal M2",—
same,Tumor volume,"Day 3, animal M2",0.0000 cm^3
same,Tumor measurement L (length),"Day 3, animal M3",—
same,Tumor measurement W (width),"Day 3, animal M3",—
same,Tumor volume,"Day 3, animal M3",0.0000 cm^3
same,Tumor measurement L (length),"Day 3, animal M4",—
same,Tumor measurement W (width),"Day 3, animal M4",—
same,Tumor volume,"Day 3, animal M4",0.0000 cm^3
same,Tumor measurement L (length),"Day 3, animal M5",—
same,Tumor measurement W (width),"Day 3, animal M5",—
same,Tumor volume,"Day 3, animal M5",0.0000 cm^3
same,Tumor Volume (cm^3) (Mean ± SD),Day 3,0.001 ± 0.0017 cm^3
same,"PI (TV), percent inhibition of tumor volume",Day 3,−750.00%
same,Tumor measurement L (length),"Day 6, animal F1",—
same,Tumor measurement W (width),"Day 6, animal F1",—
same,Tumor volume,"Day 6, animal F1",0.0000 cm^3
same,Tumor measurement L (length),"Day 6, animal F2",—
same,Tumor measurement W (width),"Day 6, animal F2",—
same,Tumor volume,"Day 6, animal F2",0.0000 cm^3
same,Tumor measurement L (length),"Day 6, animal F3",—
same,Tumor measurement W (width),"Day 6, animal F3",—
same,Tumor volume,"Day 6, animal F3",0.0000 cm^3
same,Tumor measurement L (length),"Day 6, animal F4",—
same,Tumor measurement W (width),"Day 6, animal F4",—
same,Tumor volume,"Day 6, animal F4",0.0000 cm^3
same,Tumor measurement L (length),"Day 6, animal F5",—
same,Tumor measurement W (width),"Day 6, animal F5",—
same,Tumor volume,"Day 6, animal F5",0.0000 cm^3
same,Tumor measurement L (length),"Day 6, animal M1",—
same,Tumor measurement W (width),"Day 6, animal M1",—
same,Tumor volume,"Day 6, animal M1",0.0000 cm^3
same,Tumor measurement L (length),"Day 6, animal M2",—
same,Tumor measurement W (width),"Day 6, animal M2",—
same,Tumor volume,"Day 6, animal M2",0.0000 cm^3
same,Tumor measurement L (length),"Day 6, animal M3",—
same,Tumor measurement W (width),"Day 6, animal M3",—
same,Tumor volume,"Day 6, animal M3",0.0000 cm^3
same,Tumor measurement L (length),"Day 6, animal M4",—
same,Tumor measurement W (width),"Day 6, animal M4",—
same,Tumor volume,"Day 6, animal M4",0.0000 cm^3
same,Tumor measurement L (length),"Day 6, animal M5",—
same,Tumor measurement W (width),"Day 6, animal M5",—
same,Tumor volume,"Day 6, animal M5",0.0000 cm^3
same,Tumor Volume (cm^3) (Mean ± SD),Day 6,0.000 ± 0.0000 cm^3
same,"PI (TV), percent inhibition of tumor volume",Day 6,100.00%
same,Tumor volume,"Day 9, animal F1",0.0000 cm^3
same,Tumor volume,"Day 9, animal F2",0.0000 cm^3
same,Tumor volume,"Day 9, animal F3",0.0000 cm^3
same,Tumor volume,"Day 9, animal F4",0.0000 cm^3
same,Tumor measurement L (length),"Day 9, animal F5",0.10 cm
same,Tumor measurement W (width),"Day 9, animal F5",0.10 cm
same,Tumor volume,"Day 9, animal F5",0.0005 cm^3
same,Tumor volume,"Day 9, animal M1",0.0000 cm^3
same,Tumor volume,"Day 9, animal M2",0.0000 cm^3
same,Tumor volume,"Day 9, animal M3",0.0000 cm^3
same,Tumor volume,"Day 9, animal M4",0.0000 cm^3
same,Tumor measurement L (length),"Day 9, animal M5",0.10 cm
same,Tumor measurement W (width),"Day 9, animal M5",0.10 cm
same,Tumor volume,"Day 9, animal M5",0.0005 cm^3
same,Tumor Volume (cm^3) (Mean ± SD),Day 9,0.000 ± 0.0002 cm^3
same,"mean tumor volume compared with Group 1 (vehicle), statistics","Day 9, p<0.05",statistically significantly smaller than Group 1
same,"PI (TV), percent inhibition of tumor volume",Day 9,99.52%
same,"Tumor measurements on Day 12, L","Day 12, animal F1",0.30 cm
same,"Tumor measurements on Day 12, W","Day 12, animal F1",0.30 cm
same,Tumor volume,"Day 12, animal F2",0.0000 cm^3
same,"Tumor measurements on Day 12, L","Day 12, animal F3",0.30 cm
same,"Tumor measurements on Day 12, W","Day 12, animal F3",0.30 cm
same,"Tumor measurements on Day 12, L","Day 12, animal F4",0.30 cm
same,"Tumor measurements on Day 12, W","Day 12, animal F4",0.30 cm
same,"Tumor measurements on Day 12, L","Day 12, animal F5",0.30 cm
same,"Tumor measurements on Day 12, W","Day 12, animal F5",0.30 cm
same,Tumor volume,"Day 12, animal M1",0.0000 cm^3
same,"Tumor measurements on Day 12, L","Day 12, animal M2",0.30 cm
same,"Tumor measurements on Day 12, W","Day 12, animal M2",0.30 cm
same,Tumor volume,"Day 12, animal M3",0.0000 cm^3
same,Tumor volume,"Day 12, animal M4",0.0000 cm^3
same,"Tumor measurements on Day 12, L","Day 12, animal M5",0.30 cm
same,"Tumor measurements on Day 12, W","Day 12, animal M5",0.30 cm
same,Tumor Volume (cm^3) (Mean ± SD),Day 12,0.008 ± 0.0070 cm^3
same,"PI (TV), percent inhibition of tumor volume",Day 12,97.64%
same,"Tumor measurements on Day 15, L","Day 15, animal F1",0.60 cm
same,"Tumor measurements on Day 15, W","Day 15, animal F1",0.60 cm
same,"Tumor measurements on Day 15, L","Day 15, animal F2",0.40 cm
same,Tumor volumes on Day 15,"Day 15, animal F2",0.0320 cm^3
same,"Tumor measurements on Day 15, W","Day 15, animal F2",0.40 cm
same,"Tumor measurements on Day 15, L","Day 15, animal F3",0.60 cm
same,"Tumor measurements on Day 15, W","Day 15, animal F3",0.60 cm
same,"Tumor measurements on Day 15, L","Day 15, animal F4",0.70 cm
same,Tumor volumes on Day 15,"Day 15, animal F4",0.0875 cm^3
same,"Tumor measurements on Day 15, W","Day 15, animal F4",0.50 cm
same,"Tumor measurements on Day 15, L","Day 15, animal F5",0.50 cm
same,Tumor volumes on Day 15,"Day 15, animal F5",0.0625 cm^3
same,"Tumor measurements on Day 15, W","Day 15, animal F5",0.50 cm
same,"Tumor measurements on Day 15, L","Day 15, animal M1",0.20 cm
same,Tumor volumes on Day 15,"Day 15, animal M1",0.0040 cm^3
same,"Tumor measurements on Day 15, W","Day 15, animal M1",0.20 cm
same,"Tumor measurements on Day 15, L","Day 15, animal M2",0.50 cm
same,Tumor volumes on Day 15,"Day 15, animal M2",0.0625 cm^3
same,"Tumor measurements on Day 15, W","Day 15, animal M2",0.50 cm
same,"Tumor measurements on Day 15, L","Day 15, animal M3",0.20 cm
same,Tumor volumes on Day 15,"Day 15, animal M3",0.0040 cm^3
same,"Tumor measurements on Day 15, W","Day 15, animal M3",0.20 cm
same,"Tumor measurements on Day 15, L","Day 15, animal M4",0.30 cm
same,"Tumor measurements on Day 15, W","Day 15, animal M4",0.30 cm
same,"Tumor measurements on Day 15, L","Day 15, animal M5",0.50 cm
same,Tumor volumes on Day 15,"Day 15, animal M5",0.0625 cm^3
same,"Tumor measurements on Day 15, W","Day 15, animal M5",0.50 cm
same,Tumor Volume (cm^3) (Mean ± SD),Day 15,0.054 ± 0.0399 cm^3
same,"PI (TV), percent inhibition of tumor volume",Day 15,92.56%
same,effect on tumor growth in words,daily dosing Days 3-15,effective towards the tumor inhibition

# Reference: US20100267637A1, “TREATMENT OF MELANOMA WITH ALPHA THYMOSIN PEPTIDES IN COMBINATION WITH A KINASE INHIBITOR” (SciClone Pharmaceuticals, Inc., priority 2007, published 2010)
